From patent US11008313B2, “Substituted 1-methyl-1,2,3,4-tetrahydroisoquinoline molecules as PCSK9 allosteric binders” (Merck Sharp & Dohme Corp., priority 2016, dated 2021)
Values joined by “and” are separate entries in the source; they are usually repeats but may differ in a detail not shown here. Equal entries are not always repeated. Where two headings read alike, the source gives them in different places.

Experiments:
[1] = target: PCSK9 (Homo sapiens, UniProt Q8NBP7); test: Fluorescence polarization competition binding assay (probe: compound of Example 57); settings: 2 μM PCSK9, 50 nM compound of Example 57 as probe, overnight incubation; read-out: FP IC
Outline: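 Competition fluorescence-polarization binding: 2 μM PCSK9 with 50 nM fluorescent probe in 20 mM HEPES pH 7.5, 150 mM NaCl, 1 mM CaCl2, 0.005% P-20, incubated with test compound overnight in the dark. Anisotropy read; % inhibition relative to DMSO wells and probe-without-PCSK9 wells.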

[2] = target: T1, HEK293 cells stably overexpressing PCSK9 (Homo sapiens, UniProt Q8NBP7); test: Protein degradation assay (Western Blot/Sally Sue assay); format: cell-based; settings: 24 hrs compound treatment, serum free DMEM
T1 construct: expressed in transfected cells
Procedure: Samples were run on the Sally Simple Western system from ProteinSimple (San Jose, Calif.) using default assay conditions. Briefly, 5×10^4 HEK293 cells stably overexpressing PCSK9 were seeded into Collagen I coated 96 well plates and allowed to recover overnight at 37° C. with 5% CO2. After 24 hrs of compound treatment in serum free DMEM cell culture medium, cells were washed with PBS and lysed in 100 ul RIPA buffer (Teknova) supplemented with protease inhibitors and subsequently mixed with fluorescent standards as per manufacturer's specifications, followed by denaturation at 95° C. for 5 minutes. Anti-PCSK9 mAb antibody (Abbomax, Cat. No. 601-650) was used for PCSK9 detection. The reported DC50 values represent the effective concentration of compound to lower PCSK9 protein levels, pro and mature, by 50%.

[3] = mature PCSK9 protein level lowered by 50%
[4] = pro PCSK9 protein level lowered by 50%
[5] = mature PCSK9 protein level lowered by 50%, read-out: PCSK9 DC50 (Mature)
[6] = pro PCSK9 protein level lowered by 50%, read-out: PCSK9 DC50 (Pro)

Chain of PCSK9 (Q8NBP7 153-692): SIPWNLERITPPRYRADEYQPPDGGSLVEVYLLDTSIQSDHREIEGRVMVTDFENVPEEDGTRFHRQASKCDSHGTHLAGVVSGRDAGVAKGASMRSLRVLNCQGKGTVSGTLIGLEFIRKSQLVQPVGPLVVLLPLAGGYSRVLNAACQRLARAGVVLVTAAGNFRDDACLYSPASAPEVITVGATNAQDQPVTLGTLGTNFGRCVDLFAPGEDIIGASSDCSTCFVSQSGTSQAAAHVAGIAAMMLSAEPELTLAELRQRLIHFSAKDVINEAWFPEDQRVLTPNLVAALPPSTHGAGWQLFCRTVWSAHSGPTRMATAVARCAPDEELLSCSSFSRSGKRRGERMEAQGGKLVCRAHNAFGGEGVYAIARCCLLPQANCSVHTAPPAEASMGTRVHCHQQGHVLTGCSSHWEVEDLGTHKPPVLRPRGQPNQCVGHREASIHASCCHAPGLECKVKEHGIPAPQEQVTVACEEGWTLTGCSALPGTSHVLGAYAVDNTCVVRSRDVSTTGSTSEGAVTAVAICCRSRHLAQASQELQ

| IC50 [1] | PCSK9 DC50 (Mature) μM [2, 3] | PCSK9 DC50 (Pro) μM [2, 4] | DC50 [2, 5] [nM] | DC50 [2, 6] [nM] | Compound |
| --- | --- | --- | --- | --- | --- |
| 130 nM | inactive | Inactive |  |  | CC(C)C[C@H](NC(=O)[C@@H](O)[C@H](N)Cc1ccccc1)C(=O)NCCOCCOCCOCCOc1cc2c(cc1Oc1ccc(-c3ccc(C(=O)O)cc3)c(F)c1)[C@@](C)(CC(=O)Nc1nccs1)NCC2 [Example 97, 4′-(((R)-6-(((14S,17S,18R)-18-amino-17-hydroxy-14-isobutyl-13,16-dioxo-19-phenyl-3,6,9-trioxa-12,15-diazanonadecyl)oxy)-1-methyl-1-(2-oxo-2-(thiazol-2-ylamino)ethyl)-1,2,3,4-tetrahydroisoquinolin-7-yl)oxy)-2′-fluoro-[1,1′-biphenyl]-4-carboxylic acid] |
| 162 nM | inactive | Inactive |  |  | Cc1ncsc1-c1ccc(CNC(=O)[C@@H]2C[C@@H](O)CN2C(=O)[C@@H](NC(=O)COCCOCC(=O)NCCOCCOc2cc3c(cc2Oc2ccc(-c4ccc(C(=O)O)cc4)c(F)c2)[C@@](C)(CC(=O)Nc2nccs2)NCC3)C(C)(C)C)cc1 [Example 102, 2′-fluoro-4′-(((R)-6-(((S)-16-((2S,4R)-4-hydroxy-2-((4-(4-methylthiazol-5-yl)benzyl)carbamoyl)pyrrolidine-1-carbonyl)-17,17-dimethyl-7,14-dioxo-3,9,12-trioxa-6,15-diazaoctadecyl)oxy)-1-methyl-1-(2-oxo-2-(thiazol-2-ylamino)ethyl)-1,2,3,4-tetrahydroisoquinolin-7-yl)oxy)-[1,1′-biphenyl]-4-carboxylic acid] |
| 130 nM | inactive | Inactive |  |  | COCCOc1cc2c(cc1Oc1ccc(-c3ccc(C(=O)O)cc3)c(F)c1)[C@@](C)(CC(=O)Nc1nccs1)NCC2 [Example 101, (R)-2′-fluoro-4′-((6-(2-methoxyethoxy)-1-methyl-1-(2-oxo-2-(thiazol-2-ylamino)ethyl)-1,2,3,4-tetrahydroisoquinolin-7-yl)oxy)-[1,1′-biphenyl]-4-carboxylic acid] |
| 110 nM |  |  | 1050 | 6550 | C[C@]1(CC(=O)Nc2nccs2)NCCc2cc(OCCOCCOCCOCCNC(=O)CC34CC5CC(CC(C5)C3)C4)c(Oc3ccc(-c4ccc(C(=O)O)cc4)c(F)c3)cc21 [Example 96] |
| 162 nM | inactive | Inactive |  |  | Cc1ncsc1-c1ccc(CNC(=O)[C@@H]2C[C@@H](O)CN2C(=O)[C@@H](NC(=O)COCCOCCOCC(=O)NCCOCCOc2cc3c(cc2Oc2ccc(-c4ccc(C(=O)O)cc4)c(F)c2)[C@@](C)(CC(=O)Nc2nccs2)NCC3)C(C)(C)C)cc1 [Example 103, 2′-fluoro-4′-(((R)-6-(((S)-19-((2S,4R)-4-hydroxy-2-((4-(4-methylthiazol-5-yl)benzyl)carbamoyl)pyrrolidine-1-carbonyl)-20,20-dimethyl-7,17-dioxo-3,9,12,15-tetraoxa-6,18-diazahenicosyl)oxy)-1-methyl-1-(2-oxo-2-(thiazol-2-ylamino)ethyl)-1,2,3,4-tetrahydroisoquinolin-7-yl)oxy)-[1,1′-biphenyl]-4-carboxylic acid] |
| 831 nM | inactive | Inactive |  |  | COC(=O)c1ccc(-c2ccc(Oc3cc4c(cc3OCCOCCNC(=O)COCC(=O)N[C@H](C(=O)N3C[C@H](O)C[C@H]3C(=O)NCc3ccc(-c5scnc5C)cc3)C(C)(C)C)CCN[C@]4(C)CC(=O)Nc3nccs3)cc2F)cc1 [Example 107, methyl 2′-fluoro-4′-(((R)-6-(((S)-13-((2S,4R)-4-hydroxy-2-((4-(4-methylthiazol-5-yl)benzyl)carbamoyl)pyrrolidine-1-carbonyl)-14,14-dimethyl-7,11-dioxo-3,9-dioxa-6,12-diazapentadecyl)oxy)-1-methyl-1-(2-oxo-2-(thiazol-2-ylamino)ethyl)-1,2,3,4-tetrahydroisoquinolin-7-yl)oxy)-[1,1′-biphenyl]-4-carboxylate] |
| 578 nM | inactive | Inactive |  |  | CC(C)Cc1ccc([C@H](C)C(=O)NCCOCCOc2cc3c(cc2Oc2ccc(-c4ccc(C(=O)O)cc4)c(F)c2)[C@@](C)(CC(=O)Nc2nccs2)NCC3)cc1 [Example 108] |
| 188 nM and 578 nM |  |  | 4240 | 6180 | CC(C)Cc1ccc([C@H](C)C(=O)NCCOCCOCCOc2cc3c(cc2Oc2ccc(-c4ccc(C(=O)O)cc4)c(F)c2)[C@@](C)(CC(=O)Nc2nccs2)NCC3)cc1 [Example 93] |
| 107 nM | inactive | Inactive |  |  | CC(C)C[C@H](NC(=O)[C@@H](O)[C@H](N)Cc1ccccc1)C(=O)NCCOCCOCCOc1cc2c(cc1Oc1ccc(-c3ccc(C(=O)O)cc3)c(F)c1)[C@@](C)(CC(=O)Nc1nccs1)NCC2 [Example 95, 4′-(((R)-6-(((11S,14S,15R)-15-amino-14-hydroxy-11-isobutyl-10,13-dioxo-16-phenyl-3,6-dioxa-9,12-diazahexadecyl)oxy)-1-methyl-1-(2-oxo-2-(thiazol-2-ylamino)ethyl)-1,2,3,4-tetrahydroisoquinolin-7-yl)oxy)-2′-fluoro-[1,1′-biphenyl]-4-carboxylic acid] |
| 222 nM |  |  | 7520 | 1530 | C[C@]1(CC(=O)Nc2nccs2)NCCc2cc(OCCOCCNC(=O)CC34CC5CC(CC(C5)C3)C4)c(Oc3ccc(-c4ccc(C(=O)O)cc4)c(F)c3)cc21 [Example 104, 4′-(((R)-6-(2-(2-(2-((3r,5r,7r)-adamantan-1-yl)acetamido)ethoxy)ethoxy)-1-methyl-1-(2-oxo-2-(thiazol-2-ylamino)ethyl)-1,2,3,4-tetrahydroisoquinolin-7-yl)oxy)-2′-fluoro-[1,1′-biphenyl]-4-carboxylic acid] |
| 260 nM |  |  | 5070 | 6080 | CC(C)Cc1ccc([C@H](C)C(=O)NCCOCCOCCOCCOc2cc3c(cc2Oc2ccc(-c4ccc(C(=O)O)cc4)c(F)c2)[C@@](C)(CC(=O)Nc2nccs2)NCC3)cc1 [Example 98, 2′-fluoro-4′-(((R)-6-(((S)-14-(4-isobutylphenyl)-13-oxo-3,6,9-trioxa-12-azapentadecyl)oxy)-1-methyl-1-(2-oxo-2-(thiazol-2-ylamino)ethyl)-1,2,3,4-tetrahydroisoquinolin-7-yl)oxy)-[1,1′-biphenyl]-4-carboxylic acid] |

| Compound | IC50 [1] | PCSK9 DC50 (Mature) μM [2, 3] | PCSK9 DC50 (Pro) μM [2, 4] | DC50 [2, 5] [nM] | DC50 [2, 6] [nM] |
| --- | --- | --- | --- | --- | --- |
| CC(C)C[C@@H](NC(=O)[C@H](O)[C@@H](N)Cc1ccccc1)C(=O)NCCOCCOc1cc2c(cc1Oc1ccc(-c3ccc(C(=O)O)cc3)c(F)c1)[C@@](C)(CC(=O)Nc1nccs1)NCC2 [Example 100, 4′-(((R)-6-(2-(2-((R)-2-((2R,3S)-3-amino-2-hydroxy-4-phenylbutanamido)-4-methylpentanamido)ethoxy)ethoxy)-1-methyl-1-(2-oxo-2-(thiazol-2-ylamino)ethyl)-1,2,3,4-tetrahydroisoquinolin-7-yl)oxy)-2′-fluoro-[1,1′-biphenyl]-4-carboxylic acid] | 96.4 nM | inactive | Inactive |  |  |
| CC(C)(C)OC(=O)/N=C(/NCCC[C@H](NC(=O)OC(C)(C)C)C(=O)NCCOCCOCCOCCOc1cc2c(cc1Oc1ccc(-c3ccc(C(=O)O)cc3)c(F)c1)[C@@](C)(CC(=O)Nc1nccs1)NCC2)NC(=O)OC(C)(C)C [Example 99, 4′-(((R)-6-(((S,Z)-6,11-bis((tert-butoxycarbonyl)amino)-2,2-dimethyl-4,12-dioxo-3,16,19,22-tetraoxa-5,7,13-triazatetracos-5-en-24-yl)oxy)-1-methyl-1-(2-oxo-2-(thiazol-2-ylamino)ethyl)-1,2,3,4-tetrahydroisoquinolin-7-yl)oxy)-2′-fluoro-[1,1′-biphenyl]-4-carboxylic acid] | 718 nM |  |  | 9000 | 1370 |
| CC(C)(C)OC(=O)/N=C(/NCCC[C@@H](NC(=O)OC(C)(C)C)C(=O)NCCOCCOc1cc2c(cc1Oc1ccc(-c3ccc(C(=O)O)cc3)c(F)c1)[C@@](C)(CC(=O)Nc1nccs1)NCC2)NC(=O)OC(C)(C)C [Example 106, 4′-(((R)-6-(((R,Z)-6,11-bis((tert-butoxycarbonyl)amino)-2,2-dimethyl-4,12-dioxo-3,16-dioxa-5,7,13-triazaoctadec-5-en-18-yl)oxy)-1-methyl-1-(2-oxo-2-(thiazol-2-ylamino)ethyl)-1,2,3,4-tetrahydroisoquinolin-7-yl)oxy)-2′-fluoro-[1,1′-biphenyl]-4-carboxylic acid] | 655 nM |  |  | 3420 | 4820 |
